Reference: patent US20200255478A1, “NOVEL COMPOUNDS ACTIVATING THE NRF2 PATHWAY” (Almirall, S.A., priority 2017, published 2020)
pIC50: −log10 of the molar value. Like-named read-outs stand apart in the source and are kept apart here. Starred links: 1 amine or outer side, 2 acyl side, 3 side chain; linkers in the order of their positions; H or OH if unused. Positions of bridges follow the written chain, without caps; N, C: chain ends. Non-standard residues stand in square brackets, D forms with d. Residues, ends and D or L forms follow the SMILES beside them. Trp(2-yl) = O=C([C@H](Cc1c([*:3])[nH]c2ccccc12)N[*:1])[*:2]; Phe(4-yl) = O=C([C@H](Cc1ccc([*:3])cc1)N[*:1])[*:2]; mXylylene = c1cc(C[*:1])cc(C[*:2])c1; pXylylene = c1cc(C[*:2])ccc1C[*:1]; βAla = NCCC(=O)O

Biological target: Keap1-Maltose Binding Protein (MBP tag) (Homo sapiens, UniProt Q14145)
Experiment: Nrf2-Keap1 HTRF (TR-FRET) binding assay: displacement of biotinylated ETGE peptide from Keap1-MBP
[1] = HTRF (TR-FRET), displacement of ETGE-biotin from Keap1-MBP, values banded into grades, read-out: Binding (IC50) ETGE-Keap1

Sequence of Keap1-Maltose Binding Protein (MBP tag) (Q14145 whole entry): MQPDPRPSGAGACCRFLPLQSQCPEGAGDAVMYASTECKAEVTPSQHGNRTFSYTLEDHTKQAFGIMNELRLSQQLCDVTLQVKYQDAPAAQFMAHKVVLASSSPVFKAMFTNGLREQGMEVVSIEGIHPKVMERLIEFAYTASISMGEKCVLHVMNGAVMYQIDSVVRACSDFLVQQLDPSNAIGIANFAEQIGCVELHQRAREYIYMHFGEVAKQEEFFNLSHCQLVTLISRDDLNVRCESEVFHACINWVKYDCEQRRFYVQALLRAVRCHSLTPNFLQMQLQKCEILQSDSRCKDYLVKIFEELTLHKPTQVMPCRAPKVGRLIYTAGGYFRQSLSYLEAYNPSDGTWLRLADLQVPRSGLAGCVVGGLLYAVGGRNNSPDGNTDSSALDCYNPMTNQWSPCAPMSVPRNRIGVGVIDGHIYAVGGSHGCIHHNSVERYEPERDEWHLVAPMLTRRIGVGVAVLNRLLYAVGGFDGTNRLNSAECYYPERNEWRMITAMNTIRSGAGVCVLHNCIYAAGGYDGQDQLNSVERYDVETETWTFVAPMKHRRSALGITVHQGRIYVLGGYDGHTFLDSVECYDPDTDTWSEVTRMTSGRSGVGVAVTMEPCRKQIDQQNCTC

SMILES	pIC50	pIC50 [1]
CC(C)C[C@H](NC(=O)[C@@H]1CSc2[nH]c3ccccc3c2C[C@H](NC(=O)[C@H](CCC(N)=O)NC(=O)[C@@H](N)CC(C)C)C(=O)N[C@@H](CC(=O)O)C(=O)N[C@@H](CCC(=O)O)C(=O)N[C@@H](CCC(=O)O)C(=O)N[C@@H]([C@@H](C)O)C(=O)NCC(=O)N[C@@H](CCC(=O)O)C(=O)N1)C(=O)N1CCC[C@H]1C(=O)O [Example 1, H-Leu-Gln-Trp(indol-2-yl-&^1)-Asp-Glu-Glu-Thr-Gly-Glu-Cys(&^1)-Leu-Pro-OH] (H-LQ[Trp(2-yl)]DEETGECLP-OH; thioether 3-10)	7.00 to 9.00	–
CC(C)C[C@H](NC(=O)[C@@H]1CSCc2ccc(cc2)CSC[C@H](NC(=O)[C@H](CCC(N)=O)NC(=O)[C@@H](N)CC(C)C)C(=O)N[C@@H](CC(=O)O)C(=O)N[C@@H](CCC(=O)O)C(=O)N[C@@H](CCC(=O)O)C(=O)N[C@@H]([C@@H](C)O)C(=O)NCC(=O)N[C@@H](CCC(=O)O)C(=O)N1)C(=O)N1CCC[C@H]1C(=O)O [Example 2, {[H-Leu-Gln-Cys(&^1)-Asp-Glu-Glu-Thr-Gly-Glu-Cys(&^2)-Leu-Pro-OH][&^1(1,4-phenylenediyl)dimethylene&^2]}] (H-LQCDEETGECLP-OH; linker 3-10 via pXylylene)	–	5.30 to 7.00
CC(C)C[C@H](NC(=O)[C@@H]1CSCc2cccc(c2)CSC[C@H](NC(=O)[C@H](CCC(N)=O)NC(=O)[C@@H](N)CC(C)C)C(=O)N[C@@H](CC(=O)O)C(=O)N[C@@H](CCC(=O)O)C(=O)N[C@@H](CCC(=O)O)C(=O)N[C@@H]([C@@H](C)O)C(=O)NCC(=O)N[C@@H](CCC(=O)O)C(=O)N1)C(=O)N1CCC[C@H]1C(=O)O [Example 3, {[H-Leu-Gln-Cys(&^1)-Asp-Glu-Glu-Thr-Gly-Glu-Cys(&^2)-Leu-Pro-OH][&^1(1,3-phenylenediyl)dimethylene&^2]}] (H-LQCDEETGECLP-OH; linker 3-10 via mXylylene)	–	7.00 to 9.00
CC(C)C[C@@H]1NC(=O)[C@@H]2CCCN2C(=O)[C@H](CC(C)C)NC(=O)[C@@H]2CSCc3cccc(c3)CSC[C@H](NC(=O)[C@H](CCC(N)=O)NC1=O)C(=O)N[C@@H](CC(=O)O)C(=O)N[C@@H](CCC(=O)O)C(=O)N[C@@H](CCC(=O)O)C(=O)N[C@@H]([C@@H](C)O)C(=O)NCC(=O)N[C@@H](CCC(=O)O)C(=O)N2 [Example 4, {[&^1Leu-Gln-Cys(&^2)-Asp-Glu-Glu-Thr-Gly-Glu-Cys(&^3)-Leu-Pro&^1][&^2(1,3-phenylenediyl)dimethylene&^3]}] (cyclo(CDEETGECLPLQ); linker 1-8 via mXylylene)	> 9.00	–
CC(C)C[C@@H]1NC(=O)[C@@H]2CCCN2C(=O)[C@H](CC(C)C)NC(=O)[C@@H]2CSCc3ccc(cc3)CSC[C@H](NC(=O)[C@H](CCC(N)=O)NC1=O)C(=O)N[C@@H](CC(=O)O)C(=O)N[C@@H](CCC(=O)O)C(=O)N[C@@H](CCC(=O)O)C(=O)N[C@@H]([C@@H](C)O)C(=O)NCC(=O)N[C@@H](CCC(=O)O)C(=O)N2 [Example 5, {[&^1Leu-Gln-Cys(&^2)-Asp-Glu-Glu-Thr-Gly-Glu-Cys(&^3)-Leu-Pro&^1][&^2(1,4-phenylenediyl)dimethylene&^3]}] (cyclo(CDEETGECLPLQ); linker 1-8 via pXylylene)	7.00 to 9.00	–
CC(=O)N[C@H]1Cc2c([nH]c3ccccc23)SC[C@@H](C(N)=O)NC(=O)[C@H](CCC(=O)O)NC(=O)CNC(=O)[C@H]([C@@H](C)O)NC(=O)[C@H](CCC(=O)O)NC(=O)[C@H](CCC(=O)O)NC(=O)[C@H](CC(=O)O)NC1=O [Example 7, Acetyl-Trp(indol-2-yl-&^1)-Asp-Glu-Glu-Thr-Gly-Glu-Cys(&^1)-NH2] (Ac-[Trp(2-yl)]DEETGEC-NH2; thioether 1-8)	7.00 to 9.00	–
CC(C)C[C@H](NC(=O)[C@@H]1CSc2[nH]c3ccccc3c2C[C@H](NC(=O)[C@H](CCC(N)=O)NC(=O)[C@@H](N)CC(C)C)C(=O)N[C@@H](CC(=O)O)C(=O)N[C@@H](CCC(=O)O)C(=O)N[C@@H](CCC(=O)O)C(=O)N[C@@H]([C@@H](C)O)C(=O)NCC(=O)N[C@@H](CCC(=O)O)C(=O)N1)C(=O)N1CCC[C@H]1C(=O)NCCC(=O)N[C@@H](CCCNC(=N)N)C(=O)N[C@@H](CCCCN)C(=O)N[C@@H](CCCCN)C(=O)N[C@@H](CCCNC(=N)N)C(=O)N[C@@H](CCCNC(=N)N)C(=O)N[C@@H](CCC(N)=O)C(=O)N[C@@H](CCCNC(=N)N)C(=O)N[C@@H](CCCNC(=N)N)C(=O)N[C@@H](CCCNC(=N)N)C(N)=O [Example 8]	–	7.00 to 9.00
CC(C)C[C@H](NC(=O)[C@@H]1CSCc2cccc(c2)CSC[C@H](NC(=O)[C@H](CCC(N)=O)NC(=O)[C@@H](N)CC(C)C)C(=O)N[C@@H](CC(=O)O)C(=O)N[C@@H](CCC(=O)O)C(=O)N[C@@H](CCC(=O)O)C(=O)N[C@@H]([C@@H](C)O)C(=O)NCC(=O)N[C@@H](CCC(=O)O)C(=O)N1)C(=O)N1CCC[C@H]1C(=O)NCCC(=O)N[C@@H](CCCNC(=N)N)C(=O)N[C@@H](CCCCN)C(=O)N[C@@H](CCCCN)C(=O)N[C@@H](CCCNC(=N)N)C(=O)N[C@@H](CCCNC(=N)N)C(=O)N[C@@H](CCC(N)=O)C(=O)N[C@@H](CCCNC(=N)N)C(=O)N[C@@H](CCCNC(=N)N)C(=O)N[C@@H](CCCNC(=N)N)C(N)=O [Example 9]	–	7.00 to 9.00
CC(=O)N[C@H]1Cc2ccc(cc2)SC[C@@H](C(N)=O)NC(=O)[C@H](CCC(=O)O)NC(=O)CNC(=O)[C@H]([C@@H](C)O)NC(=O)[C@H](CCC(=O)O)NC(=O)[C@H](CCC(=O)O)NC(=O)[C@H](CC(=O)O)NC1=O [Example 10, Acetyl-Phe(p-&^1)-Asp-Glu-Glu-Thr-Gly-Glu-Cys(&^1)-NH2] (Ac-[Phe(4-yl)]DEETGEC-NH2; thioether 1-8)	–	5.30 to 7.00
CC(C)C[C@@H]1NC(=O)[C@@H]2CCCN2C(=O)[C@H](CC(C)C)NC(=O)[C@@H]2CSc3[nH]c4ccccc4c3C[C@H](NC(=O)[C@H](CCC(N)=O)NC1=O)C(=O)N[C@@H](CC(=O)O)C(=O)N[C@@H](CCC(=O)O)C(=O)N[C@@H](CCC(=O)O)C(=O)N[C@@H]([C@@H](C)O)C(=O)NCC(=O)N[C@@H](CCC(=O)O)C(=O)N2 [Example 11, &^1Leu-Gln-Trp(indol-2-yl-&^2)-Asp-Glu-Glu-Thr-Gly-Glu-Cys(&^2)-Leu-Pro&^1] (cyclo(CLPLQ[Trp(2-yl)]DEETGE); thioether 1-6)	7.00 to 9.00	–
CC(C)C[C@H](NC(=O)[C@@H]1CSCc2cccc(c2)CSC[C@H](NC(=O)[C@H](CCC(N)=O)NC(=O)[C@@H](N)CC(C)C)C(=O)N[C@@H](CC(=O)O)C(=O)N[C@@H](CCC(=O)O)C(=O)N[C@@H](CCC(=O)O)C(=O)N[C@@H]([C@@H](C)O)C(=O)NCC(=O)N[C@@H](CCC(=O)O)C(=O)N1)C(=O)N1CCC[C@H]1C(=O)NCCC(=O)N[C@@H](Cc1ccc(O)cc1)C(=O)N[C@@H](C)C(=O)N[C@@H](CCCNC(=N)N)C(=O)N[C@@H](C)C(=O)N[C@@H](C)C(=O)N[C@@H](C)C(=O)N[C@@H](CCCNC(=N)N)C(=O)N[C@@H](CCC(N)=O)C(=O)N[C@@H](C)C(=O)N[C@@H](CCCNC(=N)N)C(=O)N[C@@H](C)C(N)=O [Example 13] (H-LQCDEETGECLP[βAla]YARAAARQARA-NH2; linker 3-10 via mXylylene)	–	7.00 to 9.00
CC(C)C[C@H](NC(=O)[C@@H]1CSCc2cccc(c2)CSC[C@H](NC(=O)[C@H](CCC(N)=O)NC(=O)[C@@H](N)CC(C)C)C(=O)N[C@@H](CC(=O)O)C(=O)N[C@@H](C)C(=O)N[C@@H](CCC(=O)O)C(=O)N[C@@H]([C@@H](C)O)C(=O)NCC(=O)N[C@@H](CCC(=O)O)C(=O)N1)C(=O)N1CCC[C@H]1C(=O)O [Example 14, {[H-Leu-Gln-Cys(&^1)-Asp-Ala-Glu-Thr-Gly-Glu-Cys(&^2)-Leu-Pro-OH][&^1(1,3-phenylenediyl)dimethylene&^2]}] (H-LQCDAETGECLP-OH; linker 3-10 via mXylylene)	–	> 9.00
CC(C)C[C@H](NC(=O)[C@@H]1CSCc2cccc(c2)CSC[C@H](NC(=O)[C@H](CCC(N)=O)NC(=O)[C@@H](N)CC(C)C)C(=O)N[C@@H](CC(=O)O)C(=O)N[C@@H](C)C(=O)N[C@@H](CCC(=O)O)C(=O)N[C@@H]([C@@H](C)O)C(=O)NCC(=O)N[C@@H](CCC(=O)O)C(=O)N1)C(=O)N1CCC[C@H]1C(=O)NCCC(=O)N[C@@H](Cc1ccc(O)cc1)C(=O)N[C@@H](C)C(=O)N[C@@H](CCCNC(=N)N)C(=O)N[C@@H](C)C(=O)N[C@@H](C)C(=O)N[C@@H](C)C(=O)N[C@@H](CCCNC(=N)N)C(=O)N[C@@H](CCC(N)=O)C(=O)N[C@@H](C)C(=O)N[C@@H](CCCNC(=N)N)C(=O)N[C@@H](C)C(N)=O [Example 15] (H-LQCDAETGECLP[βAla]YARAAARQARA-NH2; linker 3-10 via mXylylene)	–	7.00 to 9.00
CC(C)C[C@H](NC(=O)[C@@H]1CSCc2cccc(c2)CSC[C@H](NC(=O)[C@H](CCC(N)=O)NC(=O)[C@@H](N)CC(C)C)C(=O)N[C@@H](CC(=O)O)C(=O)N[C@@H](C)C(=O)N[C@@H](CCC(=O)O)C(=O)N[C@@H]([C@@H](C)O)C(=O)NCC(=O)N[C@@H](CCC(=O)O)C(=O)N1)C(=O)N1CCC[C@H]1C(=O)NCCC(=O)N[C@@H](CCCNC(=N)N)C(=O)N[C@@H](CCCCN)C(=O)N[C@@H](CCCCN)C(=O)N[C@@H](CCCNC(=N)N)C(=O)N[C@@H](CCCNC(=N)N)C(=O)N[C@@H](CCC(N)=O)C(=O)N[C@@H](CCCNC(=N)N)C(=O)N[C@@H](CCCNC(=N)N)C(=O)N[C@@H](CCCNC(=N)N)C(N)=O [Example 16]	–	> 9.00
CC(C)C[C@@H]1NC(=O)[C@@H]2CCCN2C(=O)[C@H](CC(C)C)NC(=O)[C@@H]2CSCc3cccc(c3)CSC[C@H](NC(=O)[C@H](CCC(N)=O)NC1=O)C(=O)N[C@@H](CC(=O)O)C(=O)N[C@@H](C)C(=O)N[C@@H](CCC(=O)O)C(=O)N[C@@H]([C@@H](C)O)C(=O)NCC(=O)N[C@@H](CCC(=O)O)C(=O)N2 [Example 17] (cyclo(AETGECLPLQCD); linker 6-11 via mXylylene)	7.00 to 9.00	–
CC(C)C[C@H](NC(=O)[C@@H]1CSCc2ccccc2CSC[C@H](NC(=O)[C@H](CCC(N)=O)NC(=O)[C@@H](N)CC(C)C)C(=O)N[C@@H](CC(=O)O)C(=O)N[C@@H](C)C(=O)N[C@@H](CCC(=O)O)C(=O)N[C@@H]([C@@H](C)O)C(=O)NCC(=O)N[C@@H](CCC(=O)O)C(=O)N1)C(=O)N1CCC[C@H]1C(=O)NCCC(=O)N[C@@H](CCCNC(=N)N)C(=O)N[C@@H](CCCCN)C(=O)N[C@@H](CCCCN)C(=O)N[C@@H](CCCNC(=N)N)C(=O)N[C@@H](CCCNC(=N)N)C(=O)N[C@@H](CCC(N)=O)C(=O)N[C@@H](CCCNC(=N)N)C(=O)N[C@@H](CCCNC(=N)N)C(=O)N[C@@H](CCCNC(=N)N)C(N)=O [Example 18]	–	7.00 to 9.00
